Where “and” joins values, the source holds several entries; their conditions need not be identical. Equal values may be shown once. Inconclusive results and toxic doses are left out. Rule as the data show it: active = T/C of 150% or more; inactive = T/C below 125%.
Tested on: L1210 leukemia ip in BDF1 mice, survival T/C
Assay: NCI In Vivo Anticancer Drug Screen. Data for tumor model L1210 Leukemia (intraperitoneal) in B6D2F1 (BDF1) mice
Conditions: endpoint: mean survival time, higher = longer survival
Summary of the method: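 Mice bearing the transplanted tumor received compound or vehicle. Survival of the treated group was divided by that of the vehicle-treated control group to give the ratio.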

[1] = dose: 100.0 mg/kg/injection, schedule: Q01DX001 (ip), vehicle: saline
[2] = dose: 100.0 mg/kg/injection, schedule: Q04DX003 (ip), vehicle: saline
[3] = dose: 200.0 mg/kg/injection, schedule: Q01DX001 (ip), vehicle: saline
[4] = dose: 200.0 mg/kg/injection, schedule: Q04DX003 (ip), vehicle: saline
[5] = dose: 400.0 mg/kg/injection, schedule: Q01DX001 (ip), vehicle: saline
[6] = dose: 25.0 mg/kg/injection, schedule: Q01DX009 (ip), vehicle: saline with Tween-80
[7] = dose: 50.0 mg/kg/injection, schedule: Q01DX009 (ip), vehicle: saline with Tween-80
[8] = dose: 100.0 mg/kg/injection, schedule: Q01DX009 (ip), vehicle: saline with Tween-80
[9] = dose: 100.0 mg/kg/injection, schedule: Q04DX003 (ip), vehicle: Klucel (hydroxypropylcellulose) (HPC)
[10] = dose: 200.0 mg/kg/injection, schedule: Q04DX003 (ip), vehicle: Klucel (hydroxypropylcellulose) (HPC)
[11] = dose: 400.0 mg/kg/injection, schedule: Q04DX003 (ip), vehicle: Klucel (hydroxypropylcellulose) (HPC)

Measured: T/C

O=C1C=CC(=O)O1 (tested in a mixture with another compound)
inactive: dose: 0.22 mg/kg/injection, schedule: Q01DX009 (ip), vehicle: acetone 96 % of control | dose: 0.44 mg/kg/injection, schedule: Q01DX009 (ip), vehicle: acetone 105 % of control | dose: 0.78 mg/kg/injection, schedule: Q04DX003 (ip), vehicle: other 93 % of control | dose: 0.88 mg/kg/injection, schedule: Q01DX009 (ip), vehicle: acetone 92 % of control | dose: 1.56 mg/kg/injection, schedule: Q04DX003 (ip), vehicle: other 96 % of control | dose: 3.12 mg/kg/injection, schedule: Q04DX003 (ip), vehicle: other 104 % of control | dose: 4.6 mg/kg/injection, schedule: Q04DX003 (ip), vehicle: Klucel (hydroxypropylcellulose) (HPC) 96 % of control | dose: 7.1 mg/kg/injection, schedule: Q04DX003 (ip), vehicle: Klucel (hydroxypropylcellulose) (HPC) 96 % of control | dose: 15.0 mg/kg/injection, schedule: Q01DX001 (ip), vehicle: carboxymethylcellulose (CMC) 112 % of control | dose: 22.0 mg/kg/injection, schedule: Q01DX015 (ip), vehicle: carboxymethylcellulose (CMC) 101 % of control and 119 % of control | dose: 30.0 mg/kg/injection, schedule: Q01DX001 (ip), vehicle: carboxymethylcellulose (CMC) 116 % of control | dose: 31.25 mg/kg/injection, schedule: Q#A X Z (ip), vehicle: carboxymethylcellulose (CMC) 96 % of control and 93 % of control and 108 % of control | dose: 33.0 mg/kg/injection, schedule: Q01DX015 (ip), vehicle: carboxymethylcellulose (CMC) 101 % of control and 103 % of control | dose: 50.0 mg/kg/injection, schedule: Q01DX009 (ip), vehicle: saline 107 % of control [middle of 5 runs] | dose: 50.0 mg/kg/injection, schedule: Q01DX015 (ip), vehicle: carboxymethylcellulose (CMC) 108 % of control | dose: 62.5 mg/kg/injection, schedule: Q#A X Z (ip), vehicle: carboxymethylcellulose (CMC) 96 % of control and 95 % of control and 106 % of control | dose: 75.0 mg/kg/injection, schedule: Q01DX001 (ip), vehicle: carboxymethylcellulose (CMC) 119 % of control | dose: 75.0 mg/kg/injection, schedule: Q01DX001 (ip), vehicle: water 104 % of control | dose: 75.0 mg/kg/injection, schedule: Q01DX015 (ip), vehicle: carboxymethylcellulose (CMC) 98 % of control | [1] 115 % of control | dose: 100.0 mg/kg/injection, schedule: Q01DX009 (ip), vehicle: saline 112 % of control [middle of 7 runs] | [2] 107 % of control and 112 % of control and 109 % of control | dose: 125.0 mg/kg/injection, schedule: Q#A X Z (ip), vehicle: carboxymethylcellulose (CMC) 86 % of control and 102 % of control and 106 % of control | dose: 125.0 mg/kg/injection, schedule: Q#A X Z (oral), vehicle: carboxymethylcellulose (CMC) 106 % of control and 100 % of control | dose: 150.0 mg/kg/injection, schedule: Q01DX001 (ip), vehicle: water 106 % of control | dose: 177.0 mg/kg/injection, schedule: Q01DX001 (ip), vehicle: saline 98 % of control | [3] 107 % of control | [4] 106 % of control [middle of 4 runs] | dose: 250.0 mg/kg/injection, schedule: Q#A X Z (ip), vehicle: carboxymethylcellulose (CMC) 86 % of control and 108 % of control and 90 % of control | dose: 250.0 mg/kg/injection, schedule: Q#A X Z (oral), vehicle: carboxymethylcellulose (CMC) 106 % of control and 100 % of control and 103 % of control | dose: 270.0 mg/kg/injection, schedule: Q01DX001 (ip), vehicle: saline 105 % of control | dose: 300.0 mg/kg/injection, schedule: Q01DX001 (ip), vehicle: water 97 % of control | [5] 112 % of control and 100 % of control | dose: 400.0 mg/kg/injection, schedule: Q01DX009 (ip), vehicle: saline 113 % of control | dose: 500.0 mg/kg/injection, schedule: Q#A X Z (oral), vehicle: carboxymethylcellulose (CMC) 100 % of control and 102 % of control | dose: 600.0 mg/kg/injection, schedule: Q01DX001 (ip), vehicle: saline 94 % of control | dose: 1000.0 mg/kg/injection, schedule: Q#A X Z (oral), vehicle: carboxymethylcellulose (CMC) 100 % of control and 106 % of control and 102 % of control

CCOC(=O)c1ccc(N(CC(N)O)S(=O)(=O)c2ccc(C)cc2)cc1 (centres undefined)
inactive: dose: 12.5 mg/kg/injection, schedule: Q01DX009 (ip), vehicle: saline with Tween-80 96 % of control | [6] 98 % of control | [7] 98 % of control

O=C1OC(=O)c2c1cccc2[N+](=O)[O-]
inactive: [6] 97 % of control | [7] 90 % of control | [8] 94 % of control and 88 % of control

CCOCCOCCOC(C)Oc1ccc(C(C)C)cc1 (centres undefined)
inactive: dose: 100.0 mg/kg/injection, schedule: Q04DX002 (ip), vehicle: saline 93 % of control | dose: 200.0 mg/kg/injection, schedule: Q04DX002 (ip), vehicle: saline 104 % of control | dose: 400.0 mg/kg/injection, schedule: Q04DX002 (ip), vehicle: saline 101 % of control

CC(=O)Oc1ccc(Cl)cc1C=O
inactive: [1] 105 % of control | [3] 103 % of control

CC1N(C)CCC1(C)CN1c2ccccc2Sc2ccccc21 (centres undefined)
inactive: [2] 108 % of control | [4] 102 % of control

CCC(CC)CCCC(C)Nc1ccnc2cc(Cl)ccc12 (centres undefined)
inactive: dose: 6.25 mg/kg/injection, schedule: Q01DX009 (ip), vehicle: saline 101 % of control | dose: 12.5 mg/kg/injection, schedule: Q01DX009 (ip), vehicle: saline 98 % of control | dose: 25.0 mg/kg/injection, schedule: Q01DX009 (ip), vehicle: saline 95 % of control

CN(Cc1ccccc1)C(=O)c1cccc(C(=O)N(C)Cc2ccccc2)c1
inactive: dose: 100.0 mg/kg/injection, schedule: Q01DX009 (ip), vehicle: other 97 % of control | dose: 200.0 mg/kg/injection, schedule: Q01DX009 (ip), vehicle: other 97 % of control | dose: 400.0 mg/kg/injection, schedule: Q01DX009 (ip), vehicle: other 94 % of control

O=C(Nc1ccc(F)cc1)c1ccc(C(=O)Nc2ccc(F)cc2)cc1
inactive: dose: 50.0 mg/kg/injection, schedule: Q04DX003 (ip), vehicle: saline with Tween-80 91 % of control | [1] 100 % of control | [8] 100 % of control | dose: 100.0 mg/kg/injection, schedule: Q04DX003 (ip), vehicle: saline with Tween-80 96 % of control | [3] 96 % of control | dose: 200.0 mg/kg/injection, schedule: Q01DX009 (ip), vehicle: saline with Tween-80 108 % of control | dose: 200.0 mg/kg/injection, schedule: Q04DX003 (ip), vehicle: saline with Tween-80 96 % of control | [5] 102 % of control | dose: 400.0 mg/kg/injection, schedule: Q01DX009 (ip), vehicle: saline with Tween-80 94 % of control

O=C(O)c1ccccc1C(=O)c1ccc2c3c(cccc13)CC2
inactive: dose: 100.0 mg/kg/injection, schedule: Q01DX009 (ip), vehicle: Klucel (hydroxypropylcellulose) (HPC) 104 % of control | [9] 107 % of control | dose: 200.0 mg/kg/injection, schedule: Q01DX009 (ip), vehicle: Klucel (hydroxypropylcellulose) (HPC) 107 % of control | [10] 102 % of control | dose: 400.0 mg/kg/injection, schedule: Q01DX009 (ip), vehicle: Klucel (hydroxypropylcellulose) (HPC) 105 % of control | [11] 100 % of control

CC(=O)N(C(C)=O)N(C(C)=O)C(=O)c1ccccn1
inactive: dose: 100.0 mg/kg/injection, schedule: Q01DX001 (ip), vehicle: water 106 % of control | dose: 200.0 mg/kg/injection, schedule: Q01DX001 (ip), vehicle: water 101 % of control | dose: 400.0 mg/kg/injection, schedule: Q01DX001 (ip), vehicle: water 106 % of control

COC(=O)c1cccc2c1-c1ccccc1C(Br)C2Br (centres undefined)
inactive: [1] 111 % of control | [2] 96 % of control | [3] 95 % of control | [4] 92 % of control | [5] 97 % of control | dose: 400.0 mg/kg/injection, schedule: Q04DX003 (ip), vehicle: saline 94 % of control

CCCCCCC(C1CCCCC1)C1CCCCC1
inactive: dose: 100.0 mg/kg/injection, schedule: Q01DX001 (ip), vehicle: carboxymethylcellulose (CMC) 86 % of control | dose: 200.0 mg/kg/injection, schedule: Q01DX001 (ip), vehicle: carboxymethylcellulose (CMC) 102 % of control | dose: 400.0 mg/kg/injection, schedule: Q01DX001 (ip), vehicle: carboxymethylcellulose (CMC) 91 % of control

CCN(CC)C(=S)[S][Sb]([c]1ccccc1)[c]1ccccc1
inactive: dose: 100.0 mg/kg/injection, schedule: Q01DX001 (ip), vehicle: steriod suspending solution 110 % of control

CCC(C#N)N1CC1 (centres undefined)
inactive: dose: 15.0 mg/kg/injection, schedule: Q01DX001 (ip), vehicle: saline 94 % of control | dose: 30.0 mg/kg/injection, schedule: Q01DX001 (ip), vehicle: saline 104 % of control

O=C(C#Cc1ccccc1)Nc1ccccc1
inactive: [9] 114 % of control | [10] 97 % of control | [11] 98 % of control
